Laboratory results published in publication PMC10044449 (Xenobiotica; the fate of foreign compounds in biological …, 2022).
“And” between values parts separate entries of the source, which are not always exact repeats. Identical values can stand only once.

What was measured:
Escherichia coli GUS = conditions: ref Pellock et al. 2018; cited from earlier work
Liver microsomal binding [1] = type: in vitro ADME; conditions: ICR/CD-1, mouse, liver microsomes, pH 7.4
Plasma protein binding [2] = type: in vitro ADME; conditions: both, human, pH 7.4, Mean fu (fraction unbound), 37 °C
[3] = mice received ca. 0.4 mg/kg; ref Bhatt et al. 2020; cited from earlier work
[4] = Liver microsomal metabolic stability; type: in vitro ADME, mouse
[5] = Prediction of in vivo CLH from in vitro CLint; type: in vitro ADME, rat; conditions: for Predicted in vivo CLH: rat
[6] = Liver microsomal metabolic stability; type: in vitro ADME, rat
[7] = Prediction of in vivo CLH from in vitro CLint; type: in vitro ADME
[8] = Hepatocyte metabolic stability; conditions: human, hepatocytes
human hepatocytes = assay: UHPLC/MS metabolite characterisation, hepatocyte incubations; type: in vitro ADME; conditions: 120 minute human hepatocyte incubation
[9] = Prediction of in vivo CLH from in vitro CLint; type: in vitro ADME, mouse; conditions: for Predicted in vivo CLH: mouse
[10] = Mouse pharmacokinetic study; type: in vivo, Swiss albino mice; conditions: mice; for AUC(0-t): AUClast
Liver microsomal binding [11] = type: in vitro ADME; conditions: Sprague Dawley, rat, liver microsomes, pH 7.4
[12] = Efficacy in a mouse model; type: in vivo; conditions: corresponds to ca. 0.4 mg/kg in mice
[13] = UHPLC/MS metabolite characterisation, liver microsome incubations; type: in vitro ADME; conditions: 5 minute rat liver microsome incubation
Plasma protein binding [14] = type: in vitro ADME; conditions: male, CD-1, mouse, pH 7.4, Mean fu (fraction unbound), 37 °C
Plasma protein binding [15] = type: in vitro ADME; conditions: rat plasma
Caco-2 cells = assay: Caco-2 bidirectional permeability; conditions: Caco-2, without inhibitor mix
[16] = Caco-2 bidirectional permeability; conditions: human, Caco-2, pH 7.4
[17] = UHPLC/MS metabolite characterisation, liver microsome incubations; type: in vitro ADME; conditions: 15 minute human microsome incubation
[18] = Liver microsomal metabolic stability
Liver microsomal binding [19] = type: in vitro ADME; conditions: human, liver microsomes, pH 7.4
[20] = Hepatocyte metabolic stability; conditions: ICR/CD-1, mouse, hepatocytes
[21] = Hepatocyte metabolic stability; conditions: Sprague Dawley, rat, hepatocytes
[22] = test system: microbial versus mammalian β-glucuronidases; conditions: ref Pellock et al. 2018; cited from earlier work
[23] = UHPLC/MS metabolite characterisation, liver microsome incubations; type: in vitro ADME; conditions: 5 minute mouse liver microsome incubation
[24] = ICR/CD-1, mouse, liver microsomes, pH 7.4
[25] = Sprague Dawley, rat, liver microsomes, pH 7.4

Which IC50 (Escherichia coli GUS) does the source give for `C1CCc2c(c(N3CCOCC3)nc3sc4c(N5CCNCC5)nnnc4c23)C1` [UNC10201652, 4-(8-(piperazin-1-yl)-1,2,3,4-tetrahydro-[1,2,3]triazino[4′,5′:4,5]thieno[2,3-c]isoquinolin-5-yl)morpholine] here?
The IC50 was 117 nM.

What about the fraction unbound at 4 h, 2 μM (Liver microsomal binding [1]) of the same molecule?
Its fraction unbound at 4 h, 2 μM is 0.453.

And the fraction unbound at 4 h, 2 μM (Plasma protein binding [2])?
Its fraction unbound at 4 h, 2 μM is 0.0548.

And the “Efficacy in a mouse model” value [3]?
The value was “good efficacy”.

And the half-life at 1 μM [4, 24]?
Its half-life at 1 μM is 12 min.

What about the microsomal CLint at 1 μM [4, 24] of the same molecule?
The microsomal CLint at 1 μM was 115 µL/min/mg.

What about the “Stability in control incubation in the absence of NADPH” value (shortened to “Stability in control incubation”) ([4]; mouse liver microsomes, without NADPH, 45 min) of the same molecule?
Its value is “stable”.

What about the “Scaled hepatocyte CLint as % of hepatic blood flow” value ([5]; rat hepatocytes) of the same molecule?
Its value is > 60 % of hepatic blood flow.

And the “Predicted in vivo CLH” value ([5]; scaled from hepatocyte CLint)?
The value was 59.8 mL/min/kg.

And the “Predicted in vivo CLH” value ([5]; scaled from microsomal CLint)?
Its value is 43.5 mL/min/kg.

What about the half-life at 1 μM [6, 25] of the same molecule?
Its half-life at 1 μM is 7.14 min.

And the microsomal CLint at 1 μM [6, 25]?
The microsomal CLint at 1 μM was 194 µL/min/mg.

And the “Stability in control incubation” value ([6]; rat liver microsomes, without NADPH, 45 min)?
Its value is “stable”.

And the “Predicted CLH as % of hepatic blood flow” value ([7]; human)?
The value was “approximately 22 % of hepatic blood flow”.

What about the “Predicted in vivo CLH” value ([7]; human, scaled from hepatocyte CLint) of the same molecule?
The value was 4.65 mL/min/kg.

And the “Predicted in vivo CLH” value ([7]; human, scaled from microsomal CLint)?
Its value is 3.51 mL/min/kg.

And the “Predicted CLH in human” value ([7]; overall figure from microsomal and hepatocyte data)?
Its value is 4 mL/min/kg.

And the half-life at 1 μM [8]?
Its half-life at 1 μM is 66.4 min.

And the hepatocyte CLint at 1 μM [8]?
The hepatocyte CLint at 1 μM was 20.9 µL/min/1e6 cells.

And the “Area percentage in sample (% of total drug-related material by MS area)” value (human hepatocytes)?
Its value is “ca. 48%”.

And the “Scaled hepatocyte CLint as % of hepatic blood flow” value ([9]; mouse hepatocytes)?
The value was > 60 % of hepatic blood flow.

And the “Predicted in vivo CLH” value ([9]; scaled from hepatocyte CLint)?
Its value is 75.9 mL/min/kg.

What about the “Predicted in vivo CLH” value ([9]; scaled from microsomal CLint) of the same molecule?
Its value is 42.1 mL/min/kg.

And the AUC(0-inf) ([10]; male, Swiss albino, mouse, plasma, iv, 3 mg/kg, AUCINF, IV 3 mg/kg)?
The AUC(0-inf) was 154 ng·h/mL.

What about the AUC(0-t) ([10]; male, Swiss albino, mouse, plasma, iv, 3 mg/kg, IV 3 mg/kg) of the same molecule?
The AUC(0-t) was 137 ng·h/mL.

What about the Vd ([10]; male, Swiss albino, mouse, plasma, iv, 3 mg/kg, Vss, IV 3 mg/kg) of the same molecule?
The Vd was 16.7 L/kg.

What about the AUC(0-t) ([10]; male, Swiss albino, mouse, plasma, po, 3 mg/kg, PO 3 mg/kg) of the same molecule?
Its AUC(0-t) is roughly 20 ng·h/mL.

And the Cmax ([10]; male, Swiss albino, mouse, plasma, po, 3 mg/kg, Cmax, PO 3 mg/kg)?
Its Cmax is 15.2 ng/mL.

And the Tmax ([10]; male, Swiss albino, mouse, plasma, po, 3 mg/kg, Tmax, PO 3 mg/kg)?
The Tmax was 15 min.

And the “Tolerability / clinical signs” value ([10]; 3 mg/kg IV and PO, with and without ABT, up to 24 h post dose)?
Its value is “no clinical signs were observed”.

What about the “Plasma concentration at the 24 h time point” value ([10]; IV 3 mg/kg, 24 h) of the same molecule?
The value was “not detectable”.

And the “Decrease in plasma clearance after ABT” value ([10]; IV 3 mg/kg, ABT versus no ABT)?
Its value is “ca. 2.5 fold”.

And the “Increase in Vss after ABT” value ([10]; IV 3 mg/kg, ABT versus no ABT)?
The value was “ca. 2 fold”.

And the “Increase in plasma half-life after ABT” value ([10]; IV 3 mg/kg, ABT versus no ABT)?
The value was “ca. 6 fold”.

And the “CL (plasma clearance)” value ([10]; IV 3 mg/kg, 3 mg/kg)?
Its value is 325.0 mL/min/kg.

And the Vss ([10]; IV 3 mg/kg, 3 mg/kg)?
Its Vss is 16.7 L/kg.

And the “Time of Cmax post dose” value ([10]; PO 3 mg/kg)?
Its value is 15 min.

And the “F (oral bioavailability, from AUClast)” value ([10]; PO 3 mg/kg + ABT 50 mg/kg 2 h prior)?
The value was 184%.

What about the “Increase in plasma Cmax after ABT” value ([10]; PO 3 mg/kg, ABT versus no ABT) of the same molecule?
The value was “greater than 10 fold”.

And the “F (oral bioavailability, from AUClast)” value ([10]; PO 3 mg/kg, 3 mg/kg)?
The value was 15% and 15^c %.

And the fraction unbound at 4 h, 2 μM (Liver microsomal binding [11])?
The fraction unbound at 4 h, 2 μM was 0.618.

And the Local gut concentration [12]?
The Local gut concentration was “approximately 90 μM”.

What about the “Area percentage in sample (% of total drug-related material by MS area)” value [13] of the same molecule?
The value was “ca. 92%”.

And the fraction unbound at 4 h, 2 μM (Plasma protein binding [14])?
Its fraction unbound at 4 h, 2 μM is 0.0648.

What about the “Extent of plasma protein binding” value (Plasma protein binding [15]) of the same molecule?
The value was 89%.

What about the “Mean A-B Papp” value (Caco-2 cells; 120 min, pH 7.4) of the same molecule?
The value was 5.88 cm/s (×10^−6).

And the “Mean B-A Papp” value (Caco-2 cells; 120 min, pH 7.4)?
The value was 15.9 cm/s (×10^−6).

And the efflux ratio at 120 min, 10 μM [16]?
The efflux ratio at 120 min, 10 μM was 2.7.

And the “Area percentage in sample (% of total drug-related material by MS area)” value [17]?
Its value is “ca. 82%”.

And the “Stability in control incubation” value ([18]; human liver microsomes, without NADPH, 45 min)?
Its value is “stable”.

What about the half-life at 1 μM ([18]; human, microsomes, pH 7.4) of the same molecule?
The half-life at 1 μM was 28.8 min.

And the microsomal CLint at 1 μM ([18]; human, microsomes, pH 7.4)?
The microsomal CLint at 1 μM was 48.1 µL/min/mg.

And the fraction unbound at 4 h, 2 μM (Liver microsomal binding [19])?
Its fraction unbound at 4 h, 2 μM is 0.642.

What about the half-life at 1 μM [20] of the same molecule?
The half-life at 1 μM was 11.9 min.

And the hepatocyte CLint at 1 μM [20]?
Its hepatocyte CLint at 1 μM is 116 µL/min/1e6 cells.

What about the half-life at 1 μM [21] of the same molecule?
The half-life at 1 μM was 9.89 min.

What about the hepatocyte CLint at 1 μM [21] of the same molecule?
The hepatocyte CLint at 1 μM was 140 µL/min/1e6 cells.

And the “Specificity microbial versus mammalian β-glucuronidases” value [22]?
Its value is “highly specific inhibitor”.

What about the “Area percentage in sample (% of total drug-related material by MS area)” value [23] of the same molecule?
Its value is “ca. 86%”.

For `COc1ccc2c(c1)[C@]13CCCC[C@@H]1[C@H](C2)N(C)CC3` [dextromethorphan, reference compound], which microsomal CLint at 1 μM ([18]; human, microsomes, pH 7.4) is on record?
Its microsomal CLint at 1 μM is 44.8 µL/min/mg.

With `C[C@]12CC[C@@H]3c4ccc(OS(=O)(=O)O)cc4CC[C@H]3[C@@H]1CCC2=O` [oestrone 3-sulfate, reference compound] as the molecule, how does the Efflux ratio (Caco-2 cells) read?
Its Efflux ratio is 105.
